Results reported in ChEMBL document CHEMBL4325872, “Identification of Selective Dual ROCK1 and ROCK2 Inhibitors Using Structure-Based Drug Design” (J Med Chem, 2018).
In brackets after ≈: the same amount, converted by molar mass.

How the values were obtained:
in vitro = conditions: PAMPA

SMILES: COc1cccc([C@@H](C)NC(=O)c2ccc(-c3ccncn3)cc2N2CCC[C@@H](CN)C2)c1
- solubility (physchem): 51.2 µM (≈ 22.8 µg/mL)
- Papp (in vitro): 2.5 ×10⁻⁶ cm/s

SMILES: COc1cccc([C@@H](C)NC(=O)c2ccc(-c3ccncn3)cc2N2CC[C@@H](CN)C2)c1
- solubility (physchem): 63.9 µM (≈ 27.6 µg/mL)
- Papp (in vitro): 1.4 ×10⁻⁶ cm/s

SMILES: COc1cccc([C@@H](C)NC(=O)c2ccc(-c3ccncn3)cc2N2CCC[C@H](CN)C2)c1
- solubility (physchem): 65.5 µM (≈ 29.2 µg/mL)
- Papp (in vitro): 2.6 ×10⁻⁶ cm/s
